In patent US20030055070A1, “Phosphodiesterase type 5 (PDE5) inhibitors for the treatment of selective serotonin reuptake inhibitor (SSR) induced sexual dysfunction” (priority 1999, published 2003):

Key:
[1] = test system: SSRI induced sexual dysfunction; conditions: four patients (two men, two women); all reported; cited from earlier work
[2] = test system: SSRI-induced sexual side effects; conditions: case studies of patients taking SSRIs; cited from earlier work
[3] = test system: men with ED taking concomitant SSRIs; assay: Retrospective subanalysis of 10 double-blind, placebo-controlled sildenafil citrate studies, IIEF questionnaire; patients taking concomitant SSRIs; format: in vivo, human
Experimental: (§1) A retrospective analysis of combined data from 10 Phase II/III double-blind, placebo-controlled, fixed- and flexible-dose trials identified a subgroup of men with ED who were receiving 5-200 mg of sildenafil citrate (S) or placebo (P) and taking concomitant SSRIs. Studies of sildenafil citrate in various populations have been reported. For example, Goldstein et al. report the results of two sildenafil citrate studies in men. In one study 532 men were treated with oral sildenafil citrate (25, 50 or 100 mg) or placebo over 24 weeks to study dose-response. In the second study 329 men were treated with sildenafil citrate or placebo with dose escalation to 100 mg based on efficacy and tolerance. Additional studies may be found in the following references: Derry et al. (1998), Dinsmore et al. (1999), Goldstein et al. (1998), Padma-Nathan et al. (1998) and Rendell et al. (1999). Analysis of efficacy (ANCOVA) included responses to several questions including question 9 (Q9; frequency of ejaculation) and question 10 (Q10; frequency of orgasm) of the International Index of Erectile Function. In the International Index of Erectile Function, sexual activity includes intercourse, caressing, foreplay and masturbation; sexual intercourse is defined as vaginal penetration of a partner by the respondent; sexual stimulation includes situations like foreplay with a partner, looking at erotic pictures, etc.; ejaculation: the ejection of semen from the penis (or the feeling of this). Question 9 is, “Over the past 4 weeks, when you had sexual stimulation or intercourse how often did you ejaculate?” Question 10 is, “Over the past 4 weeks, when you had sexual stimulation or intercourse how often did you have the feeling of orgasm (with or without ejaculation)? Scores are based on a scale from 1 (almost never or never) to 5 (almost always or always), with 0 representing “No sexual stimulation/intercourse.” Each question was scored from 0 to 5, with lower scores indicating greater sexual dysfunction. Results are expressed as mean baseline score's standard error of mean, (±SEM) and mean change from baseline (±SEM) at the end of treatment (6 to 24 weeks).
(§2) This was a retrospective subanalysis of combined data from 10 double-blind, placebo-controlled, fixed- and flexible-dose studies with sildenafil citrate for the treatment of ED. The subanalysis was conducted to assess whether treatment with sildenafil citrate can alleviate symptoms of sexual dysfunction in men taking SSRIs. The studies lasted for 6 to 24 weeks and dosing of the study drug ranged from 5 mg to 200 mg of sildenafil citrate or matching placebo. Patients were instructed to take medication approximately 1 hour before anticipated sexual activity but not more than once daily.
(§3) A total of 3414 patients were randomized to treatment. The main inclusion criteria were as follows: Men aged 18 years and older; Clinical diagnosis of ED of more than 6 months' duration; Stable relationship with a female partner for at least 6 months prior to the study; and written informed consent. The main exclusion criteria were as follows: Penile anatomical deformities; Major illness or uncontrolled psychiatric disorder; Concomitant treatment with nitrates or nitric oxide donors, estrogens, androgens, or anticoagulants. Other treatments for sexual dysfunction were not allowed during the study.
Efficacy was assessed at the end of treatment (6 to 24 weeks) by responses to the validated 15-item International Index of Erectile Function (IIEF) questionnaire. Rosen et al. (1997) “The International Index of Erectile Function (IIEF): a Multidimensional Scale for Assessment of Erectile Dysfunction,” Urology 49:822-830. Responses were graded on a scale of 1 (“almost never/never”) to 5 (“almost always/always”), with a score of 0 indicating no sexual activity. Efficacy results were evaluated using analysis of covariance (ANCOVA) and were expressed as mean scores. […]

[4] = test system: SSRI induced sexual dysfunction in men and women; conditions: nine men, five women; twelve on SSRIs, two on mirtazapine; all patients; cited from earlier work
men with ED = assay: Retrospective subanalysis of 10 double-blind, placebo-controlled sildenafil citrate studies, IIEF questionnaire; patients without SSRIs; format: in vivo, human
Experimental: as §1, §2, §3
Efficacy was assessed at the end of treatment (6 to 24 weeks) by responses to the validated 15-item International Index of Erectile Function (IIEF) questionnaire. Rosen et al. (1997) “The International Index of Erectile Function (IIEF): a Multidimensional Scale for Assessment of Erectile Dysfunction,” Urology 49:822-830. Responses were graded on a scale of 1 (“almost never/never”) to 5 (“almost always/always”), with a score of 0 indicating no sexual activity. Efficacy results were evaluated using analysis of covariance (ANCOVA) and were expressed as mean scores.

[5] = with SSRIs, 5-200 mg, end of treatment (6 to 24 weeks), scale 0-5
[6] = with SSRIs, baseline, scale 0-5
[7] = no SSRI, end of treatment (6 to 24 weeks), 5-200 mg, scale 0-5
[8] = no SSRI, p<0.0001 versus placebo
[9] = without SSRIs, 5-200 mg, end of treatment (6 to 24 weeks), scale 0-5
[10] = without SSRIs, baseline, scale 0-5

Compound: CCCc1nn(C)c2c(=O)[nH]c(-c3cc(S(=O)(=O)N4CCN(C)CC4)ccc3OCC)nc12.O=C(O)CC(O)(CC(=O)O)C(=O)O [Sildenafil citrate, 1-[[3-(6,7-dihydro-1-methyl-7-oxo-3-propyl-1H-pyrazolo[4,3-d]pyrimidin-5-yl)-4-ethoxyphenyl]sulfonyl]-4-methylpiperazine citrate]
- Effect on SSRI induced sexual dysfunction, in words [1]: rapid reversal of SSRI induced sexual dysfunction
- Response to treatment, in words [2]: responding well
- Frequency of orgasm (Question 10), effect versus placebo, in words ([3]; concomitant SSRI, p<0.01 versus placebo, citrate): significantly improved
- Frequency of ejaculation (Question 9), effect versus placebo, in words ([3]; concomitant SSRI, p<0.02 versus placebo, citrate): significantly improved
- Important aspects of sexual function, in words ([3]; patients with ED with concomitant SSRI): significantly improved
- IIEF Q9 frequency of ejaculation, mean change from baseline ± SEM [3, 5]: 1.16 ± 0.25
- IIEF Q10 frequency of orgasm, mean change from baseline ± SEM [3, 5]: 1.34 ± 0.27
- IIEF Q9 frequency of ejaculation, mean baseline score ± SEM [3, 6]: 2.42 ± 0.23
- IIEF Q10 frequency of orgasm, mean baseline score ± SEM [3, 6]: 2.24 ± 0.22
- Sexual functioning, in words [4]: statistically significant improvement
- Improvement of score, erection confidence (Question 15) (men with ED; no SSRI, baseline to endpoint): 76%
- Improvement of score, erection firmness (Question 2) (men with ED; no SSRI, baseline to endpoint): 78%
- Improvement of score, erection frequency (Question 1) (men with ED; no SSRI, baseline to endpoint): 60%
- Improvement of score, maintenance ability (Question 5) (men with ED; no SSRI, baseline to endpoint): 117%
- Increase of mean score, intercourse enjoyment (Question 8) (men with ED; no SSRI, baseline to endpoint): 70%
- Increase of mean score, intercourse frequency (Question 6) (men with ED; no SSRI, baseline to endpoint): 57%
- Increase of mean score, intercourse satisfaction (Question 7) (men with ED; no SSRI, baseline to endpoint): 93%
- Increase of mean score, overall satisfaction with sex life (Question 13) (men with ED; no SSRI, baseline to endpoint): 68%
- Increase of mean score, satisfaction with the relationship (Question 14) (men with ED; no SSRI, baseline to endpoint): 40%
- IIEF Question 1 erection frequency, baseline mean score (men with ED; no SSRI, baseline, scale 0-5): 2.27 ± 0.04
- IIEF Question 2 erection firmness, baseline mean score (men with ED; no SSRI, baseline, scale 0-5): 1.97 ± 0.03
- IIEF Question 5 maintenance ability, baseline mean score (men with ED; no SSRI, baseline, scale 0-5): 1.54 ± 0.03
- IIEF Question 6 intercourse frequency, baseline mean score (men with ED; no SSRI, baseline, scale 0-5): 2.00 ± 0.03
- IIEF Question 7 intercourse satisfaction, baseline mean score (men with ED; no SSRI, baseline, scale 0-5): 1.75 ± 0.03
- IIEF Question 8 intercourse enjoyment, baseline mean score (men with ED; no SSRI, baseline, scale 0-5): 1.86 ± 0.03
- IIEF Question 13 overall satisfaction, baseline mean score (men with ED; no SSRI, baseline, scale 0-5): 2.00 ± 0.02
- IIEF Question 14 relationship satisfaction, baseline mean score (men with ED; no SSRI, baseline, scale 0-5): 2.63 ± 0.03
- IIEF Question 15 erection confidence, baseline mean score (men with ED; no SSRI, baseline, scale 0-5): 1.76 ± 0.02
- Increase of mean score from mean baseline score, ability to achieve an erection (Question 3) (men with ED; no SSRI, end of treatment): 80%
- Increase of mean score from mean baseline score, ability to maintain an erection (Question 4) (men with ED; no SSRI, end of treatment): 107%
- IIEF Question 1 erection frequency, endpoint mean score (men with ED; [7]): 3.63 ± 0.04
- IIEF Question 2 erection firmness, endpoint mean score (men with ED; [7]): 3.50 ± 0.04
- IIEF Question 5 maintenance ability, endpoint mean score (men with ED; [7]): 3.35 ± 0.04
- IIEF Question 6 intercourse frequency, endpoint mean score (men with ED; [7]): 3.13 ± 0.03
- IIEF Question 7 intercourse satisfaction, endpoint mean score (men with ED; [7]): 3.38 ± 0.04
- IIEF Question 8 intercourse enjoyment, endpoint mean score (men with ED; [7]): 3.16 ± 0.03
- IIEF Question 13 overall satisfaction, endpoint mean score (men with ED; [7]): 3.36 ± 0.03
- IIEF Question 14 relationship satisfaction, endpoint mean score (men with ED; [7]): 3.68 ± 0.03
- IIEF Question 15 erection confidence, endpoint mean score (men with ED; [7]): 3.10 ± 0.03
- Frequency of ejaculation (Question 9), mean score versus placebo, in words (men with ED; [8]): increased significantly
- Frequency of orgasm (Question 10), mean score versus placebo, in words (men with ED; [8]): increased significantly
- Important aspects of sexual function, in words (men with ED; patients with ED without concomitant SSRI): significantly improved
- IIEF Q9 frequency of ejaculation, mean change from baseline ± SEM (men with ED; [9]): 0.90 ± 0.04
- IIEF Q10 frequency of orgasm, mean change from baseline ± SEM (men with ED; [9]): 0.93 ± 0.04
- IIEF Q9 frequency of ejaculation, mean baseline score ± SEM (men with ED; [10]): 2.74 ± 0.04
- IIEF Q10 frequency of orgasm, mean baseline score ± SEM (men with ED; [10]): 2.65 ± 0.04
